Laboratory results taken from US20120309838A1, “USE OF AGOMELATINE IN OBTAINING MEDICAMENTS INTENDED FOR THE TREATMENT OF OBSESSIVE-COMPULSIVE DISORDER (OCD)” (Les Laboratoires Servier, priority 2010, published 2012).
Entries after “also recorded” stand apart in the source; their conditions may differ.

Columns and labels:
[1] = test system: Male mice of the NMRI strain; test: Spontaneous marble burying in mice (model of Obsessive-Compulsive Disorder); format: in vivo; conditions: for number of marbles buried: injected 30 minutes before test, 30 minutes' exploration, 24 marbles, carrier 20.2±0.6
Protocol: Pre-clinical studies were carried out using a model of Obsessive-Compulsive Disorder (OCD), confirming the potential of agomelatine for treatment of this pathology. […] The study was carried out as follows. Male mice of the NMRI strain (Iffa-Credo, L'Arbresle, France), weighing 20-25 g on the day of the experiment, were placed individually in Macrolon boxes (30×18×19 cm) containing 5 cm of sawdust and covered with a perforated plexiglass plate. Twenty-four “cat's eye” glass marbles were evenly distributed on the sawdust at the periphery of the box. At the end of 30 minutes' free exploration, the animals were removed from the box and the number of buried marbles was counted. Agomelatine or the carrier (control) was injected 30 minutes before the start of the test.

[2] = test system: out-patients having a primary diagnosis of Obsessive-Compulsive Disorder; test: Double-blind placebo-controlled clinical study in out-patients with Obsessive-Compulsive Disorder; format: in vivo, human; conditions: 25 mg, 16 weeks of treatment
Protocol: A clinical study comparing agomelatine with placebo was carried out in 80 out-patients more than 18 and less than 65 years in age, having a primary diagnosis of Obsessive-Compulsive Disorder according to the criteria of DSM-IV-TR. The patients must have, on entry into the study, a score of 20 or more on the Y-BOCS scale (Yale Brown Obsessive Compulsive Scale) and have been previously treated for their Obsessive-Compulsive Disorder with a serotonin reuptake inhibitor (SRI). The patients must have a depression severity score of less than 24 on the MADRS depression scale.
The study is a double-blind placebo-controlled study for a duration of treatment of 16 weeks. The patients are randomised either into the placebo group or into the 25 mg agomelatine group with the possibility of increasing the dose of agomelatine to 50 mg in the event of failure to respond after 8 weeks of treatment (criterion for failure to respond: less than 20% reduction in the total Y-BOCS score).
The main criterion for the assessment of efficacy is the reduction in the total score on the Y-BOCS scale. […] The presence of depressive symptoms and their course over time are analysed by the MADRS depression scale at the start of treatment and after 16 weeks of treatment. […]

patients = test: Tolerability observed in clinical trials on close to 3900 patients; format: in vivo, human
Excerpt: Amongst those effects, the discontinuation syndrome observed on stopping treatment with the customary psychotropic agents is absent in the case of agomelatine, which makes it a treatment of choice in this indication.

How did the “number of marbles buried” value ([1]; 10 mg/kg intraperitoneal, n=6) turn out when `COc1ccc2cccc(CCNC(C)=O)c2c1` [Agomelatine, N-[2-(7-methoxy-1-naphthyl)ethyl]acetamide] was run?
Its value is 19.2±1.3.

What about the “number of marbles buried” value ([1]; 40 mg/kg intraperitoneal, n=6, P<0.05 vs carrier) of the same compound?
The value was 15.3±3.0.

What about the “number of marbles buried” value ([1]; 80 mg/kg intraperitoneal, n=5, P<0.05 vs carrier) of the same compound?
Its value is 4.6±1.9.

And the “effect on spontaneous marble burying (in words)” value ([1]; intraperitoneal, doses of 10, 40 and 80 mg/kg)?
Its value is “greatly reduced spontaneous marble burying in mice in dose-dependent manner; also recorded: statistically significant activity”.

And the “efficacy in the treatment of Obsessive-Compulsive Disorder (in words)” value ([2]; possibly increased to 50 mg after 8 weeks, versus placebo, 80 out-patients)?
The value was “confirm the efficacy”.

What about the “acceptability profile (in words)” value ([2]; possibly increased to 50 mg) of the same compound?
Its value is “good acceptability profile”.

What about the “tolerability (in words)” value (patients; clinical trials on close to 3900 patients) of the same compound?
The value was “excellent tolerability”.

What about the “discontinuation syndrome on stopping treatment” value (patients; compared with the customary psychotropic agents) of the same compound?
Its value is “absent”.
